In ChEMBL document CHEMBL1914349, “Porpoisamides A and B, two novel epimeric cyclic depsipeptides from a Florida Keys collection of Lyngbya sp” (Bioorg Med Chem, 2011):

How the values were obtained:
U2OS = assay: Antiproliferative activity against human U2OS cells after 48 hrs by MTT assay; format: functional, cell-based
HCT-116 = assay: Antiproliferative activity against human HCT116 cells after 48 hrs by MTT assay; format: functional, cell-based; details: HCT-116, 48 h

Row | IC50 (U2OS) [µM] | IC50 (HCT-116) [µM] | Structure (SMILES)
1 | 28 | 25 | CCCCC[C@H]1NC(=O)[C@H](C)NC(=O)[C@@H](Cc2ccccc2)N(C)C(=O)[C@@H]2CCCN2C(=O)[C@H]([C@@H](C)CC)OC(=O)[C@H]1C [PORPOISAMIDE A]
2 | 22 | 21 | CCCCC[C@H]1NC(=O)[C@H](C)NC(=O)[C@@H](Cc2ccccc2)N(C)C(=O)[C@@H]2CCCN2C(=O)[C@H]([C@@H](C)CC)OC(=O)[C@@H]1C [PORPOISAMIDE B]
